Assays:
[1] = test system: spinal cord contused rats; experiment: Locomotor recovery (BBB scale) after weight-drop spinal cord contusion at T10; type: in vivo, rat
Method: (§1) Adult female Wistar rats (˜245 g) were obtained from Charles River Breeding Laboratories and housed in a temperature-regulated (23° C.) animal facility. The spinal cords were contused with a weight drop apparatus similar to the NYU impactor (See also Basso, D. M., M. S. Beattie, and I. C. Breslmahan, 1996, Graded histological and locomotor outcomes after spinal cord contusion using the NYU weight-drop device versus transection, Exp. Neurol. 139:244–256, incorporated by reference) at the level of T10. Prior to surgery, the rats were anesthetized with an injection of pentobarbital sodium (60 mg/kg ip) and laminectomy was performed aseptically at T9–T10 to expose the spinal cord. The spinous processes at T8 and T11 were fixed with clamps to prevent movement during contusion. Body temperature was maintained at 37° C. during the period of anesthesia with a temperature-controlled heating pad and rectal thermometer. Graded injuries were produced in groups of rats by dropping a 10 g rod with a tip diameter of 2.5 mm from heights of either 6.25, 12.5, 25 or 50 mm as in the experiments of Basso identified above. Following contusion, each incision was closed with woundclips. An additional four groups of identically contused rats received clenbuterol received (from Chinoin, Mexico City) that was administered by adding it to the drinking water at a dose of 9 mg/L. This concentration delivers clenbuterol at a rate of 1.6 mg/kg body wt./day. The animals had access to water and food in their cages immediately after recovery from surgery and throughout the experiment. Water consumption is not believed to be affected by the addition of clenbuterol. Oral dosing is particularly effective over prolonged periods because clenbuterol readily enters the circulation via the gut, has high receptor affinity and a relatively long half-life. In all, 8 treatment groups (Table I) were examined. […]
Recovery of locomotor function was determined with BBB scale as previously described. […] For the three days following contusion and at one week intervals thereafter for a total of six weeks, each rat was scored for locomotor function according to the BBB scale. […] For several rats in treatment groups receiving 50 mm weight drops, treatment conditions became known and were scored by one observer. […]
To confirm that salbutamol, a β2-adrenoceptor agonist, can enhance recovery of locomotor function following spinal cord injury. Groups of untreated and salbutamol-treated rats were evaluated with the 21 point Basso, Beattie and Bresnahan (BBB) scale (FIG. 9) following spinal cord contusion with a weight-drop device (10 g, 25 mm drop), Salbutamol was administered via subcutaneously implanted osmotic minipumps (Alzet) that delivered 1 mg/kg body weight/day during the 28 day recovery period. […]

[2] = test system: cultured hippocampal neurons; settings: in vitro; the NGF protected cultured hippocampal neurons from glutamate excitotoxicity; cited from earlier work
[3] = test system: spinal cord contused rats; experiment: Spinal cord histomorphometry: % spared tissue at the contusion center; type: in vivo, rat; settings: 6 weeks, 9 mg/L in drinking water
Method: as §1, with “examined. All of the procedures involving vertebrate animals were approved by the Institutional Animal Care and Use Committee of New York Medical College.” for “examined.”

interleukin-6 secretion = settings: cited from earlier work
[4] = test system: motor neuron degeneration (Mnd) mice; experiment: Behavioral tests of walking and hindlimb splaying (Messer and Flaherty), number of abnormal trials; type: in vivo, mouse; settings: of 50 trials per week, from 31 to 37 weeks of age, clenbuterol-treated n=5, P<0.01 versus untreated
Method: Behavioral tests developed by Messer and Flaherty in their original description of the Mnd mice were also performed. As described in their publication (J. Neurogenetics 3:345–355, 1986), incorporated by reference, five tests of different aspects of walking and hindlimb splaying are run each week with 10 trials for each test for a total of 50 trials. The mean number of abnormal trials occurring in clenbuterol-treated (n=5) and untreated (n=7) Mnd mice were determined until the mice were 37 weeks of age at the end of the experiment (FIG. 8). Beginning at 31 weeks of age, there is a marked worsening of behavioral scores. […] The frequency of abnormal motoneurons in each mouse was highly correlated with locomotor scores. Clenbuterol reduced the frequency of abnormal motoneurons to 8.3±0.7% (P<0.015) indicating a neurotrophic effect of β2-agonist treatment.

[5] = test system: motor neuron degeneration (Mnd) mice; experiment: Hindlimb muscle weight in Mnd and WT mice; type: in vivo, mouse; settings: 9 mg/L in drinking water
Method: (§2) Forelimb and hindlimb grip strength was measured in groups of Mnd and wild type (WT) mice that were either treated with clenbuterol in the drinking H2O (9 mg/L) until 37 weeks of age or were untreated. Forelimb and hindlimb grip strength was reduced 44–66% in Mnd compared to WT mice (FIG. 6). Clenbuterol caused relative increases in forelimb grip strength that were greater in Mnd (75%) compared to WT (20%, P<0.05, t test) mice. […] These effects of genotype and clenbuterol treatment were paralleled by similar changes in muscle mass. Thus the hindlimb soleus and extensor digitorum longus muscles were reduced 27–32% in Mnd compared to WT mice (FIG. 7). Clenbuterol caused relative increases of 46% and 29% in soleus weight in Mnd and Wt mice, respectively.

[6] = test system: motor neuron degeneration (Mnd) mice; experiment: Forelimb and hindlimb grip strength in Mnd and WT mice; type: in vivo, mouse; settings: 9 mg/L in drinking water until 37 weeks of age
Method: as §2

[7] = test system: motor neuron degeneration (Mnd) mice; experiment: Motoneuron counts and abnormal eccentric nuclei in the lumbar spinal cord; type: in vivo, mouse
brain ischemia = settings: in vivo; cited from earlier work
[8] = in vivo; cited from earlier work

CC(C)(C)NCC(O)c1ccc(O)c(CO)c1 (stereo not shown) [salbutamol]
recovery of locomotor function (BBB scale) ([1]; 10 g, 25 mm drop, 1 mg/kg body weight/day by subcutaneous osmotic minipump, 28 days, versus untreated control, P<0.05): significantly greater

CC(C)(C)NCC(O)c1cc(Cl)c(N)c(Cl)c1 (stereo not shown) [clenbuterol]
release of NGF [2]: caused the release of NGF
sparing of spinal cord tissue accounted for by treatment ([3]; 12.5 mm weight drop): 23%
sparing of spinal cord tissue accounted for by treatment ([3]; 25 mm weight drop): 33%
sparing of spinal cord tissue accounted for by treatment ([3]; 50 mm weight drop): 34%
secretion of IL-6 (interleukin-6 secretion): greatly increases secretion of IL-6
mean number of abnormal trials [4]: 6.3±1.6
increase in extensor digitorum longus muscle weight ([5]; Mnd mice): 21%
relative increase in soleus weight ([5]; Mnd mice): 46%
relative increase in soleus weight ([5]; Wt mice): 29%
increase in hindlimb grip strength ([6]; Mnd mice): 29%
relative increase in forelimb grip strength ([6]; Mnd mice): 75%
effect on hindlimb strength ([6]; WT mice): did not significantly affect
relative increase in forelimb grip strength ([6]; WT mice): 20%
motoneuron counts in the lumbar spinal cord [7]: not significantly reduced in Mnd mice or affected by clenbuterol
frequency of abnormal motoneurons (abnormal eccentric nuclei) ([7]; clenbuterol-treated, untreated Mnd 12.6±0.9%, WT 2.3±0.2%, P<0.015): 8.3±0.7%
effect on hippocampal neurons following ischemia (brain ischemia): neuroprotective effects
infarct volume due to brain ischemia (brain ischemia): reduced infarct volume
blood-brain barrier passage [8]: crosses the blood-brain barrier
improvement in final BBB score due to clenbuterol ([1]; 25 mm weight drop, versus untreated, 6 weeks): 9.3 levels
increase in BBB score ([1]; 50 mm weight drop, fourth, fifth and sixth weeks, versus untreated): 5.1–5.8 levels
mean of the final BBB scores ([1]; mean ±SE over the four clenbuterol-treated groups (6.25-50 mm weight drops), 6 weeks, 9 mg/L in drinking water, untreated 8.0±2.9, P<0.05): 13.2±1.5
